Here are results for twelve molecules from patent US6380465B1, “Cytochrome P450 enzymes and related compounds and methods” (University of Kentucky Research Foundation, priority 1998, dated 2002).

The subject of one series is CYP72A1 P450. The series can be described thus: Metabolism of pesticide substrates by the CYP72A1 P450 expressed with a reductase (yeast microsomes, [14C]-labeled substrates, HPLC). The class given is in vitro ADME, Zea mays (maize). As to conditions: expressed in the presence of a reductase; chromatographs FIGS. 8-11. The source says:
Both genes (CYP72A1 and CYP92A1), obtained as described in Example 1, were introduced into pYeDP60 vector for yeast expression. CYP72A1 was introduced as a full length gene with in-frame Met 1 and 8 as the start codons, while CYP92A1 was modified for the expression.
Expression strategies include using both full length or truncated (Met 8 start site) CYP72A1 cDNA in yeast strains WAT11, WAT21 W (R) from Philippe Urban and Denis Pompon, with, optionally, yeast vector pYeDP60. Expression is ideally achieved with full length cDNA and WAT11. Expression may also require 36 hours rather than 24 hours of galactose induction prior to microsome preparation. Glucose (SGI) or galactose (SLI) media prior to induction will give expression.
Metabolism experiments can be accomplished using microsomes prepared from yeast cells. The substrates can be incubated with [^14C]-labeled substrates and products analyzed by HPLC.

In another series the test system is CYP72A1. Kind of series: Induction of CYP72A1 expression by NA-treatment (Northern blot, maize seedlings). Type of series: in vivo. As to conditions: FIG. 5. How it is done:
(§1) A maize cDNA library was constructed from napthalic anhydride (NA)-treated Pioneer 3343IR 3.5-day-old seedlings using lambda-ZAPII vector kit (Stratagene).
(§2) Northern blot analysis was performed with total RNA isolated from control and […] and hybridized under high stringency conditions. To estimate the copy number, Southern blot analysis was performed using genomic DNA from 3343IR maize which was digested with SacI EcoRV, EcoRI, HindIII, and BamHI. The analysis was carried out under high stringency (65 degrees Celsius in 0.1×SSC and 0.1% SDS).
(§3) Based on the results of the genomic Southern blot analysis, the hybridization patterns were consistent with those predicted from the restriction patterns of the corresponding cDNAs. […] Certain physico-chemical characteristics for the deduced proteins, antigenicity and secondary structure were calculated using Network Protein Sequence Analysis at IBCP, France.

A further series concerns CYP92A1. The series can be described thus: Induction of CYP92A1 expression by NA-treatment (Northern blot, maize seedlings). The class given is in vivo. As to conditions: FIG. 5. How it is done:
as §1, §2, §3

In another series the test system is corn line GA209. The note with it: FIG. 12, thesis of Laura Boldt; cited from earlier work.
A further series deals with soybean P450. As to conditions: cited from earlier work.
The next series concerns the target T1, CYP73A1 (Helianthus tuberosus, UniProt Q04468).
T1 sequence (Q04468 1-505): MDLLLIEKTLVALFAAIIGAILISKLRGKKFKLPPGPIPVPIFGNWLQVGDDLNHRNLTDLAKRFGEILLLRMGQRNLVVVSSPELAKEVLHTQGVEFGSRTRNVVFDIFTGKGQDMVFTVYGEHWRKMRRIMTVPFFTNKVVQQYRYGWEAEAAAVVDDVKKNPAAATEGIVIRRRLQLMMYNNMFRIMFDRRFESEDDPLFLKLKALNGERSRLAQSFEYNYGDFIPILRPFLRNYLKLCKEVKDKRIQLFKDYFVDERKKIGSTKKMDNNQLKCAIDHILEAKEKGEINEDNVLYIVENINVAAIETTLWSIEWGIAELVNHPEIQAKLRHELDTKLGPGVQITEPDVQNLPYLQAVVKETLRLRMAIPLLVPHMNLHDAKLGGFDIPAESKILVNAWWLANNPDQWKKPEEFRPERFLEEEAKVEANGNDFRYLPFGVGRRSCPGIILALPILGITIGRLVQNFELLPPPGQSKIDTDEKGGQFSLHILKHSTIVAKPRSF
The note with it: cited from earlier work.

Series [1] deals with multiple pesticide metabolizing P450 in corn. As to conditions: FIG. 13, cited from earlier work.

With `O=C(O)COc1ccc(Cl)cc1Cl` [2,4-D], the “metabolism of the substrate by the CYP72A1 P450” value (“metabolism of the substrate” below) in the series on CYP72A1 P450 is reported as “Unmetabolized”.

Turning to `O=C1OC(=O)c2cccc3cccc1c23` [NA, napthalic anhydride], the “induction of CYP72A1 expression” value in the series on CYP72A1 was “highly induced”. Besides, the “induction of CYP92A1 expression” value in the series on CYP92A1 is recorded as “induced significantly less”.

As for `CCc1cccc(CC)c1N(COC)C(=O)CCl` [alachlor], the “metabolism of the substrate” value in the series with CYP72A1 P450 is “Unmetabolized”.

With `CC(C)N1C(=O)c2ccccc2NS1(=O)=O` [bentazon], the “metabolism of the substrate” value in the series on CYP72A1 P450 is reported as “shown to metabolize”. Besides, the “sensitivity of corn line GA209 to the herbicide” value (shortened to “sensitivity of corn line GA209”) with corn line GA209 is on record as “sensitive”.

For the molecule `COc1cc(Cl)nc(NC(=O)NS(=O)(=O)c2ccccc2C(=O)O)n1` [chlorimuron], the “metabolism of the substrate” value in the series with CYP72A1 P450 is reported as “shown to metabolize”.

For the molecule `Cc1ccc(NC(=O)N(C)C)cc1Cl` [chlortoluron], the “metabolism of the substrate” value in the series with CYP72A1 P450 is on record as “shown to metabolize”. The “metabolism by a soybean P450” value in the series on soybean P450 is given as “shown to metabolize”. In addition, the “metabolism by CYP73A1” value at CYP73A1 is listed as “shown to metabolize”.

Regarding `CCc1cnc(C2=NC(C)(C(C)C)C(=O)N2)c(C(=O)O)c1` (stereo not drawn) [imazethapyr], the “sensitivity of corn line GA209” value with corn line GA209 is reported as “sensitive”.

In the case of `CON(C)C(=O)Nc1ccc(Cl)c(Cl)c1` [linuron], the “metabolism of the substrate” value with CYP72A1 P450 is “Unmetabolized”. Moreover, the “metabolism by a soybean P450” value in the series with soybean P450 is recorded as “shown to metabolize”.

For the molecule `CCOC(=O)CC(SP(=S)(OC)OC)C(=O)OCC` (stereo not drawn) [malathion], in the series with CYP72A1 P450, the “metabolism of the substrate” value was “shown to metabolize”.

In the case of `COc1cc(OC)nc(NC(=O)NS(=O)(=O)c2ncccc2C(=O)N(C)C)n1` [nicosulfuron], the “sensitivity of corn line GA209” value with corn line GA209 is reported as “sensitive”.

Consider `O=C(Nc1nc(OC(F)F)cc(OC(F)F)n1)NS(=O)(=O)c1ccccc1C(=O)O` [primisulfuron], for which the “sensitivity of corn line GA209” value in the series with corn line GA209 is given as “sensitive”.

Take `CCOP(=S)(OCC)SCS(=O)(=O)C(C)(C)C` [terbufos-sulfone]: in series [1] (substrate bentazon), the “inhibition of in-vitro metabolism of bentazon” value is “inhibited”. Also, the “inhibition of in-vitro metabolism of chlorimuron” value in series [1] (substrate chlorimuron) is reported as “inhibited”. For the same molecule, in series [1] (substrate imazethapyr), the “inhibition of in-vitro metabolism of imazethapyr” value is “inhibited”. In addition, in series [1] (substrate malathion), the “inhibition of in-vitro metabolism of malathion” value is given as “inhibited”. Also, in series [1] (substrate nicosulfuron), the “inhibition of in-vitro metabolism of nicosulfuron” value is reported as “inhibited”.
